± gives the expanded uncertainty stated by the source.
What was measured:
[1] = 100 kPa, Liquid; for viscosity: Capillary tube (Ostwald / Ubbelohde) method; for speed of sound: Frequency=2 MHz, Single path-length method; for mass density: Vibrating tube method
[2] = xn = mol fraction of the nth substance listed; settings: 100 kPa, Liquid; for viscosity: Capillary tube (Ostwald / Ubbelohde) method; for speed of sound: Frequency=2 MHz, Single path-length method; for mass density: Vibrating tube method

C=COCCCC [1-(ethenyloxy)butane]
[1]
Settings | mass density [kg/m3] | speed of sound [m/s] | viscosity [mPa·s]
303.15 K | 769 ± 1.2 | 1086 ± 6 | 0.386 ± 0.015
308.15 K | 763.9 ± 1.2 | 1076 ± 6 | 0.373 ± 0.015
313.15 K | 758.8 ± 1.2 | 1066 ± 6 | 0.352 ± 0.015

COc1ccccc1 [anisole]
[1]
Settings | mass density [kg/m3] | speed of sound [m/s] | viscosity [mPa·s]
303.15 K | 984.4 ± 1.1 | 1386 ± 5 | 0.929 ± 0.015
308.15 K | 979.8 ± 1.1 | 1366 ± 5 | 0.849 ± 0.015
313.15 K | 975 ± 1.1 | 1348 ± 5 | 0.788 ± 0.015

COc1ccccc1 [anisole] + C=COC(C)=O
[2], x2 = 0
Settings | mass density [kg/m3] | speed of sound [m/s] | viscosity [mPa·s]
303.15 K | 984.4 ± 1.1 | 1386 ± 5 | 0.929 ± 0.015
308.15 K | 979.8 ± 1.1 | 1366 ± 5 | 0.849 ± 0.015
313.15 K | 975 ± 1.1 | 1348 ± 5 | 0.788 ± 0.015

CC(C)OC(C)C [diisopropyl ether]
[1]
Settings | mass density [kg/m3] | speed of sound [m/s] | viscosity [mPa·s]
303.15 K | 713.1 ± 1.2 | 982 ± 6 | 0.301 ± 0.014
308.15 K | 707.9 ± 1.2 | 962 ± 6 | 0.287 ± 0.014
313.15 K | 702.5 ± 1.2 | 942 ± 6 | 0.276 ± 0.014

CC(C)OC(C)C [diisopropyl ether] + C=COC(C)=O
[2], x2 = 0
Settings | mass density [kg/m3] | speed of sound [m/s] | viscosity [mPa·s]
303.15 K | 713.1 ± 1.2 | 982 ± 6 | 0.301 ± 0.014
308.15 K | 707.9 ± 1.2 | 962 ± 6 | 0.287 ± 0.014
313.15 K | 702.5 ± 1.2 | 942 ± 6 | 0.276 ± 0.014

C=COC(C)=O [vinyl acetate]
[1]
Settings | mass density [kg/m3] | speed of sound [m/s] | viscosity [mPa·s]
303.15 K | 919.4 ± 1.1 | 1092 ± 5 | 0.388 ± 0.014
308.15 K | 913.5 ± 1.1 | 1074 ± 5 | 0.37 ± 0.014
313.15 K | 907.3 ± 1.1 | 1054 ± 5 | 0.352 ± 0.014

C=COC(C)=O [vinyl acetate] + C=COCCCC
[2], x1 = 1
Settings | mass density [kg/m3] | speed of sound [m/s] | viscosity [mPa·s]
303.15 K | 919.4 ± 1.1 | 1092 ± 5 | 0.388 ± 0.014
308.15 K | 913.5 ± 1.1 | 1074 ± 5 | 0.37 ± 0.014
313.15 K | 907.3 ± 1.1 | 1054 ± 5 | 0.352 ± 0.014

Reference: the NIST ThermoML archive (doi:10.1016/j.jct.2019.04.018)
